The values that follow come from ChEMBL document CHEMBL5727968, “3-phenyl-pyrazole derivatives as modulators of the 5-HT2A serotonin receptor useful for the treatment of disorders related thereto” (2020).

Sequence of 5-hydroxytryptamine receptor 2A (P28223 whole entry): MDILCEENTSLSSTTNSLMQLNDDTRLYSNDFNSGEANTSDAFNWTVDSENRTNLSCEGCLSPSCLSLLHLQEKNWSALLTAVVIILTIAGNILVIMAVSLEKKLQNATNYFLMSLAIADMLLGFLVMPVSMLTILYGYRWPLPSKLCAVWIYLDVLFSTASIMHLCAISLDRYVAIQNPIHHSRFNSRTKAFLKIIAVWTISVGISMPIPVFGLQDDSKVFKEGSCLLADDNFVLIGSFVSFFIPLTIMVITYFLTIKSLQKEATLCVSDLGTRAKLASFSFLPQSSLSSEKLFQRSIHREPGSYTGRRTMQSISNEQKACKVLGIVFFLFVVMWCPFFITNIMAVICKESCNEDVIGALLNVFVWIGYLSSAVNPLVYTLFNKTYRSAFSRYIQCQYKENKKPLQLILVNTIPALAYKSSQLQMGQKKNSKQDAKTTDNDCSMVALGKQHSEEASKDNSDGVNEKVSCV

This assay concerns the target 5-hydroxytryptamine receptor 2A (Homo sapiens, UniProt P28223). Kind of assay: [125I]DOI Radioligand Binding Assay: Radioligand binding assays for human 5-HT2A receptor was conducted using the 5-HT2 agonist [125I]DOI as radioligand. To define nonspecific binding, 10 μM DOI was used for all assays. For competitive binding studies, 0.5 nM [125I]DOI was used and compounds were assayed over a range of 0.01 nM to 10 μM. Assays were conducted in a total volume of 200 μl in 96-well Perkin Elmer GF/C filter plates in assay buffer (50 mM Tris-HCl, pH 7.4, 0.5 mM EDTA, 5 mM MgCl2, and 10 μM pargyline). Assay incubations were performed for 60 min at room temperature and were terminated by rapid filtration under vacuum pressure of the reaction mixture over Whatman GF/C glass fiber filters presoaked in 0.5% PEI using a Brandell cell harvestor. Filters were then washing several times with ice-cold wash buffer (50 mM Tris-HCl, pH 7.4). Plates were then dried at room temperature and counted in a Wallac microBeta scintillation counter.
On to `Cn1nccc1-c1cc(NC(=O)NCc2ccc(Cl)cc2)ccc1OCCN1CCCC1`, for which the IC50 came out at 10.2 nM.

Take `CCC(C)OC(=O)Nc1ccc(OCCN2CCCC2)c(-c2c(Br)cnn2C)c1` (stereo not drawn): the 50% inhibitory concentration (IC50) is 1.1 nM.

For the compound `Cn1nccc1-c1cc(NC(=O)Cc2ccc(F)cc2)ccc1OCCN1CCCCC1`, the IC50 turned out to be 13.7 nM.

As a reminder, the IC50 is the concentration needed to halve the response being measured.
